US7414043B2, “9-α-substituted estratrienes as selectively active estrogens” (priority 2002, dated 2008)
Read-outs that look alike come from different tables or passages of the source.

How the values were obtained:
hERβ [1] = settings: cited from earlier work
[2] = tested on: estrogen receptor preparations from rat uteri; test: Competitive 3H-estradiol binding, rat uterus cytosol; settings: for RBA Rat Uterus: Table 2, 3H-estradiol as ligand
[3] = tested on: estrogen receptor preparations from rat prostates; test: Competitive 3H-estradiol binding, rat prostate cytosol; settings: for RBA Rat Prostate: Table 2, 3H-estradiol as ligand; for binding affinity to estrogen receptor of rat prostates compared with rat uteri: qualitative comparison prostate ER versus uterus ER
adult female rats = test: Dissociation of action ovary/uterus and pituitary gland: ovulation and uterus weight; assay type: in vivo, rat
Method: The studies with respect to the action on uterus growth and ovulation (indirect effect by influencing the secretion of pituitary gland hormones) are performed on adult female rats (body weight of 220-250 g). The substances are subcutaneously administered four times on four consecutive days. The first administration is carried out in the metestrus. One day after the last administration, the autopsy is carried out. The number of ovocytes in the tube (effect on the ovulation) as well as the uterus weight are determined.

[4] = tested on: hypophysectomized juvenile rats; test: Ovary study, ovary weight in hypophysectomized juvenile rats; assay type: in vivo, rat; settings: 0.5 mg/animal/day s.c. over 4 days, compared with estradiol 0.1 mg/animal/day
Method: (§1) The substances were tested in vivo on hypophysectomized juvenile rats. In a modification of this operative method, a GnRH antagonist is administered to the animals. It is examined whether the substance stimulates follicular proliferation (maturation) in the ovary. The ovary weight is the measurement parameter.
(§2) In each case, five animals (body weight 40-50 g) are assigned randomly to the treatment groups. The animals are fed as much as they want with a standard diet (altromin) in Makrolon cages in air-conditioned rooms with a lighting program (10 hours of darkness, 14 hours of light) and are given acidified tap water to drink.
(§3) In both cases, the animals are sacrificed 24 hours after the last administration, and the ovary weight is determined.

hERβ [5] = test: Relative binding affinity to hERβ (Kuiper et al.); design: species or system human; settings: quotient of RBA hERβ / hERα
Source text: In this case, it is assumed that ERβ predominates in the rat prostates over ERα, and ERα predominates in rat uteri over ERβ.

[6] = tested on: GnRH antagonist-treated animals; test: Ovary study, ovary weight in GnRH antagonist (Cetrorelix)-treated juvenile rats; assay type: in vivo, rat
Method: as §1, §2, §3

[7] = Table 1, 3H-estradiol as ligand, estradiol = 100

C[C@]12CC[C@@H]3c4ccc(O)cc4CC[C@H]3[C@@H]1C[C@@H](O)[C@@H]2O [Estriol]
hERβ RBA* (hERβ [1]; relative binding affinity, estradiol = 100, cited from Kuiper et al.): 21

9α-(2′,2′-Difluorovinyl)-18a-homo-estra-1,3,5(10)-triene-3,16α-diol [Compound 5]
RBA Rat Uterus [2]: 0.2 | RBA Rat Prostate [3]: 6 | binding affinity to estrogen receptor of rat prostates compared with rat uteri [3]: higher binding affinity to the estrogen receptor of rat prostates

C=C[C@]12CC[C@]3(C)C[C@H](O)C[C@H]3[C@@H]1CCc1cc(O)ccc12 [Compound 1, 9α-Vinylestra-1,3,5(10)-triene-3,16α-diol]
effect on ovulation and uterus weight (adult female rats; s.c. on four days, up to a dose of 0.4 mg/kg of body weight): does not exert any effect | RBA Rat Uterus [2]: 1.2 | increase in ovary weight [4]: comparable increase in ovary weight | RBA Rat Prostate [3]: 100 | binding affinity to estrogen receptor of rat prostates compared with rat uteri [3]: higher binding affinity to the estrogen receptor of rat prostates

C[C@]12CC[C@@H]3c4ccc(O)cc4CC[C@H]3[C@@H]1CC[C@@H]2O [Estradiol, reference compound]
ED50 of ovulation inhibition and increase in uterus weight (adult female rats; s.c. four times on four consecutive days): 0.004 mg/kg of body weight

C[C@]12CC[C@]3(C=C(F)F)c4ccc(O)cc4CC[C@H]3[C@@H]1C[C@@H](O)C2 [Compound 4, 9α-(2′,2′-Difluorovinyl)-estra-1,3,5(10)-triene-3,16α-diol]
RBA Rat Uterus [2]: 0.2 | RBA Rat Prostate [3]: 4 | binding affinity to estrogen receptor of rat prostates compared with rat uteri [3]: higher binding affinity to the estrogen receptor of rat prostates

C[C@]12CCC(O)CC1=CC[C@@H]1[C@@H]2CC[C@]2(C)C(O)CC[C@@H]12 (some centres unmarked) [5-Androstene-diol, reference compound]
ERβ/ERα (hERβ [5]): 3 | Rat uterus ER(RBA) [2, 7]: 0.1 | hERβ RBA* (hERβ [1]): 17 | Rat prost. ER(RBA) [3, 7]: 5 | prost. ER/uterus ER ([3]; ratio of RBA rat prostate ER / rat uterus ER): 50

C=C[C@]12CC[C@]3(C)[C@@H](F)[C@H](O)C[C@H]3[C@@H]1CCc1cc(O)ccc12 [Compound 2, 17β-Fluoro-9α-vinyl-estra-1,3,5(10)-triene-3,16α-diol]
action on ovary weight (FIG. 1) ([6]; GnRH antagonist-treated animals, 0.1 and 0.3 mg/animal/day, compared with estradiol 1 mg/animal/day): same action as the dose of 1 mg/animal/day of estradiol | action on ovary weight, low dosages (FIG. 2) ([6]; combination with Cetrorelix, 0.01, 0.03 mg/animal/day): show an ovary action and can eliminate the antagonistic effect of Cetrorelix | RBA Rat Uterus [2]: 2 | RBA Rat Prostate [3]: 200 | binding affinity to estrogen receptor of rat prostates compared with rat uteri [3]: higher binding affinity to the estrogen receptor of rat prostates
